Results: patent publication US20240192237A1 (curantis UG, priority 2021, published 2024)

Experiment: CBD trough plasma concentration in clinical trials CBD-CT1 and CBD-PT (LC-MS/MS)
Assay type: in vivo, patients
Settings: for concentration at 7 day: Day 7, mean ± SD; for concentration at 14 day: Day 14, mean ± SD
Method: CBD was administered as an oral dose in a capsule formulation. The dose was increased during the first week from 200 mg/d to 800 mg/d (4×200 mg) and remained at this level for the rest of the study period. Due to serious unwanted effects, the dose could be reduced irreversibly to 600 mg/d starting with day 15. […] Dose applications, blood sampling, and assessment of PANSS followed the time schedule presented below. Additional treatment with 7.5 mg lorazepam per day during the whole study period was permitted. […]
Eighteen patients with a diagnosis of schizophrenia or schizophreniform disorder should be included in this trial per protocol. Because dropouts had to be replaced by a new patient a total number of 29 patients was randomized from February 2006 to June 2008. All randomized patients complied with all inclusion and exclusion criteria: age between 18 and 65, male and female, specific DSM-IV diagnoses, initial BPRS score≥36, no pregnancy or lactation phase, reliable contraception, no lack of accountability, no other relevant interferences, no treatment with depot-antipsychotics during the last three months, no severe internal or neurological illness, no QTc prolongation, no acute suicidality nor endangerment of others by the patient. […] Treatment lasted four weeks: the first period with two weeks of CBD or placebo treatment was followed by a second period with a two-week treatment of placebo or CBD, respectively. There was no washout period between the two treatments. […] The dose could be reduced irreversibly to 400 mg/d in case of serious unwanted effects. […] The PANSS was applied at baseline and day 14 and 28. Dose applications, blood sampling, and assessment of PANSS followed the time schedule presented below. Additional treatment with 5.0 mg lorazepam per day during the whole study period was permitted. […]
Therefore, documentation of time points when CBD was administered and when blood samples were taken was limited and not included in the electronic data. Information on possible dose reductions e.g. due to adverse events were missing in the electronic data, too. In cooperation with the PI, time points were inputted based on standard routines on the ward: application of study medication was set to 9:00 AM, 12:30 PM, 6:30 PM, and 10:00 PM, and blood sampling was scheduled at 8:45 AM. Assessment of the PANSS was also timed to 8:45 AM. The loss of accuracy by standardizing times was considered acceptable because the time interval between doses and blood sampling is long, so small deviations would have no major impact. Information on actually applied doses or reduced doses was updated in cooperation with a member of the PI's research group. Based on notes in archived patient's case report files and other paper-based documents the electronic data was adjusted.
After consultation with the PI, these values were replaced with 0 because all patients with positive drug screening were excluded from the clinical trial according to the study protocol. Baseline values>0 may result from errors in procedure e.g. when blood samples were taken after dose application. Therefore, the replacement is considered as being equivalent to an imputation of a predose measurement which was not conducted.

[1] = both sexes, human, plasma, oral capsule 600 mg/d, cross-over with placebo

For `C=C(C)[C@@H]1CCC(C)=C[C@H]1c1c(O)cc(CCCCC)cc1O` [CBD, cannabidiol], the “CBD plasma concentration, CBD-PT” value (Day 21, mean ± SD, cross-over, 0 PT patients under CBD treatment per table) was 4.0 ± 1.2 µg/L, the concentration at 28 day (both sexes, human, plasma, oral, 600 mg/d) was 2.3 ± 1 ng/mL and the concentration at 7 day (both sexes, human, plasma, oral, 600 mg/d, CBD-CT1 + CBD-PT pooled (only PT measured)) was 14.1 ± 9.1 ng/mL. The concentration at 21 day (both sexes, human, plasma, oral, 600 mg/d, Day 21, mean ± SD, pooled (only PT measured)) was 4 ± 1.2 ng/mL, the concentration at 7 day [1] was 14.1 ± 9.1 ng/mL and the concentration at 14 day [1] was 19.3 ± 8.7 ng/mL. It also gave a concentration at 14 day (human, plasma, oral, CBD-CT1 + CBD-PT pooled) of 35.4 ± 22.6 ng/mL, a concentration at 28 day (human, plasma, oral, Day 28, mean ± SD, CBD-CT1 + CBD-PT pooled) of 29.2 ± 27.8 ng/mL and a concentration at 14 day (human, plasma, oral capsule 800 mg/d (titrated from 200 mg/d in first week), trough) of 50.5 ± 21.2 ng/mL. It also gave a concentration at 28 day (human, plasma, Day 28, mean ± SD, oral capsule 800 mg/d, trough) of 42.6 ± 24.7 ng/mL.
